Data set [1] has as its system Parkin. As to the kind of experiment: GFPu assay in HEK293 cells transfected with wild type Parkin (aggresome formation / proteasome function). Format: cell-based, human. As to conditions: for aggresome formation (qualitative, GFPu screen): LOPAC screen hits. As for the experimental part:
A summary of the finalized automation scheme is outlined in FIG. 12. Briefly, cells were manually transfected with Parkin using the Fugene Reagent (Roche) and then incubated for three hours at 37° C. […] Compounds were then added to the cell plate at a final concentration of 10 uM using the Multimek™ Automated Pipettor. Compounds were incubated with cells for 45 hours at 37° C. and then the media was gently aspirated with the Multimek. A mixture of 1 ug/ml Hoechst dye and 4% paraformaldehyde were then added to the cells for 40 minutes at room temperature using the Titertek Multidrop™ Lab System. Cell plates were subsequently washed using the Tecan PowerWasher and then read on the Cellomcis ArrayScan. A detailed protocol outlining this process step by step is shown in Example 8.
This example describes a protocol for the GFPu Assay in 96-well format. It will be appreciated that the protocol can be readily modified for other multi-well formats and that certain parameters can vary. […] Dose-response curves are generated using methods known in the art. Typically, serial 2-fold or 3-fold dilutions (usually in the range 10 uM to 50 pM) are tested.
1) HEK293 cells stably expressing GFP are cultured in DMEM containing 10% FBS, glutamine 2 mM and G418 sulfate at 600 μg/ml.
2) HEK 293 cells are harvested using PBS containing 5 mM EDTA. 180 μl of HEK293 cells at 67,000 cells/ml are then plated onto Costar PDL coated plates (#3667). After seeding cells on the plate, we let them sit for 30 minutes at room temperature in the tissue culture hood before placing them back into the incubator. This treatment may help reduce edge effects and is optional.
3) Incubate the plate overnight at 37° C./5% CO2 in the incubator.
4) A typical transfection cocktail is created as follows: Mix 50 ml of serum free DMEM with 1.087 ml of Fugene and wait 5 minutes at room temperature. Next add 375 μg of Parkin DNA or control vector, gently mix and incubate 35-45 minutes at room temperature.
5) Add 20 μl of transfection cocktail to each well of the plate and place back in the incubator for three hours at 37° C.
6) Add 20 μl of compound to all relevant wells. Final in-well concentration for compound is 10 μM. The DMSO concentration final in-well is 0.2%. Compound plates are diluted using serum free DMEM.
7) Plates are then incubated for 45 hours at 37° C. and 5% CO2.
8) Aspirate media out of wells.
9) Add […] a mixture containing 1 μg/ml Hoechst dye and 4% paraformaldehyde in 0.1M NaPhosphate buffer for 40 minutes at room temperature.
10) Wash with PBS containing calcium and magnesium and leave 200 μl in well.
11) Read on the ArrayScan using the Target Activation Bioapplication. […]
(§1) Dose response curves were generated by exposing cells to compounds at various concentrations. […] “Hill” refers to the Hill Slope.

Data set [2] has as its system CFTR. Briefly: GFPu assay selectivity screen, cells transfected with CFTR. The note with it: 10 uM to about 78 nM. Format: cell-based.
Source text: (§2) The first is the RING finger ligase NRDP1 as a molecule structurally and functionally similar to Parkin. The second is the Cystic Fibrosis Transmembrane Conductance Regulator (CFTR) as a molecule that is a twelve-pass membrane channel protein, and structurally not related to Parkin.
as §1

Data set [3] relates to NRDP1. As to the kind of experiment: GFPu assay selectivity screen, cells transfected with NRDP1. Type of data set: cell-based. As to conditions: for IC50: GFPu assay, NRDP1 transfected cells, 10 uM to about 78 nM, read-out: NRDP IC50.
Source text: as §2, §1

Data set [4] relates to HEK293 cells. As to the kind of experiment: Cytotoxicity (cell count) in HEK293 cells. As to conditions: for cytotoxicity: HEK293 cells. An excerpt: In terms of charactering cytotoxicity, compounds were given a low rating if the cell count was >75% of control levels, a medium rating if the cell count was between 50 and 75% of control wells, and a high rating if the cell count was less than 50% of control levels.

In data set [5] the test system is aggresome formation. The note with it: Johnston et al., 1998; cited from earlier work.
Setting [6] is: Homo sapiens, HEK293, GFPu assay, Parkin transfected cells, eight 2-fold dilutions 10 uM to about 78 nM, read-out: Parkin IC50.
[7] abbreviates: dose response, eight 2-fold dilutions 10 uM to about 78 nM.
Where [8] appears, read: Parkin expressing HEK293 cells, read-out: IC50 in the GFPu assay.
Setting [9] is: Homo sapiens, Parkin expressing HEK293 cells, read-out: IC50 in the GFPu assay.

Each structure is given as a SMILES string. Read-outs that look alike come from different tables or passages of the source.

Turning to `O=C(O)CCCc1ccc(N(CCCl)CCCl)cc1` [ELN29018, chlorambucil], the IC50 in data set [1] (setting [6]) was 7.25 µM; in data set [2] it was > 10 µM. Besides, in data set [1], the “aggresome formation (qualitative, GFPu screen)” value is listed as “decreased aggresome formation”. For the same compound, the “NRDP % @ 10” value in data set [3] (@ 10) was 32% @ 10. For the same compound, the “cytotoxicity” value in data set [4] is listed as “did not exhibit much cytotoxicity”. Also, the TC50 in data set [4] (setting [7]) is >10.

`O=c1[nH]cc(F)c(=O)[nH]1` [ELN29019, 5-fluoruracil]: the IC50 is 9 µM in data set [1] (setting [8]), > 10 µM in data set [2] and 1.6 µM in data set [3]. In addition, in data set [4], the TC50 is > 10 µM.

For `COC(=O)Nc1nc2ccc(C(=O)c3cccs3)cc2[nH]1` [ELN475312, nocodazol], the IC50 was 1.07 µM in data set [1] (setting [6]), > 10 µM in data set [2] and > 10 µM in data set [3]. Also, the “aggresome formation (qualitative, GFPu screen)” value in data set [1] is “inhibitors of aggresome formation”. Also, the TC50 in data set [4] (human) was < 0.078 µM.

In the case of `Nc1ncn([C@@H]2O[C@H](CO)[C@@H](O)[C@H]2O)c(=O)n1` [ELN476201, 5-azacytidine], the IC50 in data set [1] (setting [6]) is 5.36 µM; in data set [1] (setting [9]) it was 5.36 µM; in data set [2], > 10 µM; in data set [3], 5.81 µM. Also, the TC50 in data set [4] (human) is > 10 µM.

For the compound `O=C(N[C@@H](Cc1ccccc1)C(=O)CCl)OCc1ccccc1` [ELN476309, ZPCK], the IC50 was determined as 4.12 µM in data set [1] (GFPu assay, Parkin transfected cells, eight 2-fold dilutions 10 uM to about 78 nM, read-out: Parkin IC50); 4.1 µM in data set [1] (setting [8]); 3.88 µM in data set [2]; 0.26 µM in data set [3]. In data set [4], this compound displayed a TC50 of 10 µM.

As to `COc1cc2c(c(OC)c1OC)-c1ccc(OC)c(=O)cc1[C@@H](NC(C)=O)CC2` [ELN476311, colchicine], the “aggresome formation (qualitative, GFPu screen)” value in data set [1] is on record as “inhibitors of aggresome formation”. The TC50 in data set [4] (setting [7]) was <0.078.

As to `N[C@@H](Cc1ccc(N(CCCl)CCCl)cc1)C(=O)O` [ELN476469, melphalan], the IC50 is 6.06 µM in data set [1] (setting [6]), > 10 µM in data set [2] and > 10 µM in data set [3]. Moreover, the “aggresome formation (qualitative, GFPu screen)” value in data set [1] is given as “decreased aggresome formation”. In data set [4], the “cytotoxicity” value was “did not exhibit much cytotoxicity”. In addition, the TC50 in data set [4] (setting [7]) is listed as >10.

Consider `O=C1c2c(O)ccc(O)c2C(=O)c2c(NCCNCCO)ccc(NCCNCCO)c21` [ELN476491, mitoxantrone], for which the IC50 was < 0.078 µM in data set [1] (setting [6]), < 0.078 µM in data set [1] (setting [9]), 1.58 µM in data set [2] and 1.5 µM in data set [3]. The compound further gave a TC50 in data set [4] (human) of 6.53 µM.

On to `O=c1c(O)c(-c2cc(O)c(O)c(O)c2)oc2cc(O)cc(O)c12` [ELN476493, myricetin], for which the IC50 in data set [1] (setting [6]), in data set [2] and in data set [3] was > 10 µM in each case. In addition, the inhibition at 10 µM in data set [1] (Homo sapiens, HEK293, at 10 μM, LOPAC screen) turned out to be 59%. Besides, the “% inhibition upon dose-response curve follow-up” value in data set [1] (dose-response curve follow-up, 40% inhibition threshold) is recorded as < 40%. In data set [4] (human), the TC50 was > 10 µM.

With `COC[C@H]1OC(=O)c2coc3c2[C@@]1(C)C1=C(C3=O)[C@@H]2CCC(=O)[C@@]2(C)C[C@H]1OC(C)=O` [ELN476646, Wortmannin], the IC50 in data set [1] (setting [6]) was 0.75 µM; in data set [1] (setting [9]) it was 0.75 µM; in data set [2] it was > 10 µM; in data set [3], > 10 µM. In data set [4] (human), this compound showed a TC50 of 1.9 µM.

On to `COc1cc([C@@H]2c3cc4c(cc3[C@H](O)[C@H]3COC(=O)[C@H]23)OCO4)cc(OC)c1OC` [ELN476767, podophyllotoxin], for which the IC50 was < 0.078 µM in data set [1] (setting [6]), < 0.078 µM in data set [1] (setting [9]), > 10 µM in data set [2] and > 10 µM in data set [3]. Further, the “aggresome formation (qualitative, GFPu screen)” value in data set [1] is reported as “inhibitors of aggresome formation”. Further, the TC50 in data set [4] (setting [7]) is on record as <0.078.

For the compound `CC(=O)O[C@H]1C(=O)[C@@]2(C)[C@H]([C@H](OC(=O)c3ccccc3)[C@]3(O)C[C@H](OC(=O)[C@H](O)[C@@H](NC(=O)c4ccccc4)c4ccccc4)C(C)=C1C3(C)C)[C@]1(OC(C)=O)CO[C@@H]1C[C@@H]2O` [ELN476780, taxol], the IC50 in data set [1] (setting [6]) is < 0.156 µM; in data set [1] (setting [9]), < 0.078 µM; in data set [2], > 10 µM; in data set [3], > 10 µM. Also, in data set [1], the “aggresome formation (qualitative, GFPu screen)” value is reported as “inhibitors of aggresome formation”. In addition, in data set [4] (human), the TC50 was < 0.078 µM.

Consider `CN(Cc1cnc2nc(N)nc(N)c2n1)c1ccc(C(=O)N[C@@H](CCC(=O)O)C(=O)O)cc1` [ELN476809, methotrexate], for which the IC50 in data set [1] (setting [6]) is < 0.078 µM; in data set [1] (setting [9]) it was < 0.078 µM; in data set [2], > 10 µM; in data set [3], 0.156 µM. The TC50 in data set [4] (human) was > 10 µM.

With `Cc1ccc(S(=O)(=O)N[C@@H](Cc2ccccc2)C(=O)CCl)cc1` [ELN477056, TPCK], the IC50 in data set [1] (setting [8]) was 9.25 µM; in data set [2] it was > 10 µM; in data set [3] it was 5.47 µM. The TC50 in data set [4] (setting [7]) was >10.

Consider `CC[C@]1(O)C[C@@H]2CN(CCc3c([nH]c4ccccc34)[C@@](C(=O)OC)(c3cc4c(cc3OC)N(C)[C@H]3[C@@](O)(C(=O)OC)[C@H](OC(C)=O)[C@]5(CC)C=CCN6CC[C@]43[C@@H]65)C2)C1` [ELN477062, vinblastine], for which the IC50 in data set [1] (setting [6]) was < 0.078 µM; in data set [2] it was > 10 µM; in data set [3], > 10 µM. For the same compound, the “aggresome formation (qualitative, GFPu screen)” value in data set [1] is “inhibitors of aggresome formation”. Further, the TC50 in data set [4] (human) was < 0.078 µM.

Take `CC[C@]1(O)C[C@H]2CN(CCc3c([nH]c4ccccc34)[C@@](C(=O)OC)(c3cc4c(cc3OC)N(C=O)[C@H]3[C@@](O)(C(=O)OC)[C@H](OC(C)=O)[C@]5(CC)C=CCN6CC[C@]43[C@@H]65)C2)C1` [ELN477063, vincristine]: the IC50 in data set [1] (setting [6]) was < 0.078 µM; in data set [2], > 10 µM; in data set [3] it was > 10 µM. The “aggresome formation (qualitative, GFPu screen)” value in data set [1] is “inhibitors of aggresome formation”. In data set [4] (human), the TC50 was < 0.078 µM.

In the case of `COc1cc2c(c(OC)c1OC)-c1ccc(OC)c(=O)cc1[C@@H](NC(C)=O)CC2` [colchicine], in data set [5], the “aggresome formation (literature)” value was “completely abrogated aggresome formation”.

Consider `COC(=O)Nc1nc2ccc(C(=O)c3cccs3)cc2[nH]1` [nocodazol], for which the “aggresome formation (literature)” value in data set [5] was “completely abrogated aggresome formation”.

In the case of `CC[C@]1(O)C[C@@H]2CN(CCc3c([nH]c4ccccc34)[C@@](C(=O)OC)(c3cc4c(cc3OC)N(C)[C@H]3[C@@](O)(C(=O)OC)[C@H](OC(C)=O)[C@]5(CC)C=CCN6CC[C@]43[C@@H]65)C2)C1` [vinblastine], the “aggresome formation (literature)” value in data set [5] is “completely abrogated aggresome formation”.

Source of the values: patent US8017348B1, “Assay for Parkinson's Disease therapeutics” (Elan Pharma International Limited, priority 2005, dated 2011).
